Laboratory results: patent US6492380B1, “Method of inhibiting neurotrophin-receptor binding” (Queen's University at Kingston, priority 1999, dated 2002)

How the values were obtained:
[1] = system: T1, PC12 cells expressing TrkA and p75^NTR; assay: 125I-NGF receptor binding inhibition, PC12 cells; design: species or system rat; conditions: compound 50 μM; 125I-NGF 1 nM; 2 h at 4° C.; value is mean of the three replicates
T1 construct: host or cells: PC12 (rat pheochromocytoma)
Experimental: (§1) The radio-iodination and receptor binding of NGF (Sutter et al., 1979) was performed with modifications (Ross et al., 1997) as follows: Evaluation of the ability of NCP compounds to inhibit TrkA and p75^NTR binding was determined by the binding of ^125I-NGF to PC12 cells (rat pheochromocytoma cells expressing TrkA and p75^NTR obtained from ATCC) and PC12^nnr5 (rat pheocliromocytoma cells expressing p75^NTR only; obtained from Dr. L. Greene, Columbia University, NY). The p75^NTR is in a low affinity state and a high affinity state, respectively, in these cell types (Ross et al., 1998). PC12 and PC12^nnr5 cells were grown in RPMI (Sigma) with 10% heat inactivated donor horse serum and 5% fetal calf serum. Cells were harvested by replacing the medium with calcium, magnesium-free balanced salt solution (Gey's solution) and incubating at 37° C. for 15 minutes. Cells were pelleted by centrifugation and suspended in HKR buffer (10 mM Hepes [pH 7.35] containing 125 mM NaCl, 4.8 mM KCl, 1.3 mM CaCl2, 1.2 mM MgSO4, 1.2 mM KH2PO4, 1 g/L glucose and 1 g/L BSA) at a cell concentration of 2×10^6/mL and kept at 4° C. Triplicate tubes were set up for total binding, non-specific binding and binding in the presence of candidate competitor molecule (i.e., a tube for each data point). Each tube contained ^125I-NGF (at 1 nM), 400,000 cells (for a final cell concentration of 10^6/mL) and NGF (50 nM, to define non-specific binding), as required. The tubes were incubated for 2 h at 4° C. and specific binding evaluated by measuring specifically bound DPM (Ross et al., 1997). Data were analysed and the results expressed as receptor binding observed in the presence of competitor as a percentage of receptor binding in the absence of a competitor.

[2] = system: T2, PC12^nnr5 cells expressing p75^NTR only; assay: 125I-NGF receptor binding inhibition, PC12^nnr5 cells; design: species or system rat; conditions: compound 50 μM; 125I-NGF 1 nM; 2 h at 4° C.; value is mean of the three replicates
T2 construct: PC12^nnr5 (rat pheocliromocytoma cells expressing p75^NTR only; obtained from Dr. L. Greene, Columbia University, NY); host or cells: PC12nnr5 (rat pheochromocytoma subline)
T2 sequence (P01139 122-241): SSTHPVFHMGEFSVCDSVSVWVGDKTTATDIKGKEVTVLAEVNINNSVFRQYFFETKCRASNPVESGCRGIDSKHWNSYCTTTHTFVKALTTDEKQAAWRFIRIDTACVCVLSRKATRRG
Experimental: as §1

[3] = @ 100 μM DMSO

T1 sequence (P01139 122-241): as above

PC12 % of Max (receptor binding in presence of competitor as percentage of binding in absence of competitor) [1] | nnr5 % of Max (receptor binding in presence of competitor as percentage of binding in absence of competitor) [2] | Solubility [3] | SMILES
27, 32, 41 = 33 % of Max | 30, 4, 34 = 23 % of Max |  | O=C(O)CCN1C(=O)c2cccc3cc([N+](=O)[O-])cc(c23)C1=O [Compound 201, N-(2-carboxyethyl)-3-nitro-1,8-naphthalimide; 2-(2-carboxyethyl)-5-nitrobenzo[d,e]isoquinoline-1,3-dione]
 |  | 222 NS (NS: Not Soluble @ 100 μM DMSO) | O=C(O)CCCN1C(=O)c2cccc3c([N+](=O)[O-])ccc(c23)C1=O [Compound 222, N-(3-carboxypropyl)-4-nitro-1,8-naphthalimide; 2-(3-carboxypropyl)-6-nitrobenzo[d,e]isoquinoline-1,3-dione]
92, 87, 74 = 84 % of Max | 58, 63, 64 = 62 % of Max |  | O=C(O)CN1C(=O)c2cccc3cc([N+](=O)[O-])cc(c23)C1=O [Compound 200, N-(1-carboxymethyl)-3-nitro-1,8-naphthalimide; 2-(1-carboxymethyl)-5-nitrobenzo[d,e]isoquinoline-1,3-dione]
31, 34, 22 = 29 % of Max | 36, 35, 39 = 36 % of Max |  | O=C(O)CCCCCN1C(=O)c2cccc3c([N+](=O)[O-])ccc(c23)C1=O [Compound 224, N-(5-carboxypentyl)-4-nitro-1,8-naphthalimide; 2-(5-carboxypentyl)-6-nitrobenzo[d,e]isoquinoline-1,3-dione]
29, 32, 31 = 31 % of Max | 41, 37, 42 = 40 % of Max |  | O=C(O)CCN1C(=O)c2cccc3c([N+](=O)[O-])ccc(c23)C1=O [Compound 221, N-(2-carboxyethyl)-4-nitro-1,8-naphthalimide; 2-(2-carboxyethyl)-6-nitrobenzo[d,e]isoquinoline-1,3-dione]
21, 22, 30 = 24 % of Max | 16, 0, 0 = 5 % of Max |  | O=C(O)CCCN1C(=O)c2cccc3cc([N+](=O)[O-])cc(c23)C1=O [Compound 202, N-(3-carboxypropyl)-3-nitro-1,8-naphthalimide; 2-(3-carboxypropyl)-5-nitrobenzo[d,e]isoquinoline-1,3-dione]
37, 43, 49 = 43 % of Max | 21, 17, 26 = 21 % of Max | 220 NS (NS: Not Soluble @ 100 μM DMSO) | O=C(O)CN1C(=O)c2cccc3c([N+](=O)[O-])ccc(c23)C1=O [Compound 220, N-(1-carboxymethyl)-4-nitro-1,8-naphthalimide; 2-(1-carboxymethyl)-6-nitrobenzo[d,e]isoquinoline-1,3-dione]
36, 41, 35 = 37 % of Max | 33, 0, 18 = 17 % of Max |  | O=C(O)CCCCN1C(=O)c2cccc3cc([N+](=O)[O-])cc(c23)C1=O [Compound 203, N-(4-carboxybutyl)-3-nitro-1,8-naphthalimide; 2-(4-carboxybutyl)-5-nitrobenzo[d,e]isoquinoline-1,3-dione]
41, 41, 36 = 39 % of Max | 12, 0, 47 = 20 % of Max |  | O=C(O)CCCCCN1C(=O)c2cccc3cc([N+](=O)[O-])cc(c23)C1=O [Compound 204, N-(5-carboxypentyl)-3-nitro-1,8-naphthalimide; 2-(5-carboxypentyl)-5-nitrobenzo[d,e]isoquinoline-1,3-dione]
27, 33, 33 = 31 % of Max | 40, 41, 47 = 43 % of Max |  | O=C(O)CCCCN1C(=O)c2cccc3c([N+](=O)[O-])ccc(c23)C1=O [Compound 223, N-(4-carboxybutyl)-4-nitro-1,8-naphthalimide; 2-(4-carboxybutyl)-6-nitrobenzo[d,e]isoquinoline-1,3-dione]
